Experimental data: patent publication US10392363B2, “Methods for treating protozoan infections” (Neoculi Pty Ltd., priority 2014, dated 2019)

Columns and labels:
[1] = system: Leishmania donovani promastigotes; test: L. donovani screening (Alamarblue); type: cell-based; details: for IC50: 72 hours; for L. donovani SI: GI50 of macrophages divided by IC50 of parasites
Protocol: L. donovani Screening. Procyclic promastigotes from exponentially growing cultures maintained in DME-L+ Bob additions were used for all assays. Compounds were initially screened for activity at 10 μM. Compounds were diluted in culture media to a […] in 96 well plates. Promastigotes were diluted to a density of ˜8×10^5 cells/ml then added to the assay plate resulting in a final cell density of 4×10^5 cells/ml. in 96 well plates. Cells were incubated for 96 hrs at 27° C. before the addition of Alamarblue (thermofisher). Fluorescence was read at excitation 530 nm and Emission 590 nm. […] Compounds were serially diluted in thirds, in a 96 well plate, in cell growth media so that concentrations ranged from 0.005 to 10 μM and promastigotes added to a final concentration of 1×10^6 cells/ml. Cells were incubated at 27° C. for 72 hours before the addition of alamar blue. Fluorescence was measured as above.

[2] = system: T. brucei procyclic stage; test: T. brucei screening (alamar blue); type: cell-based, Trypanosoma brucei; details: for T. brucei SI: GI50 of macrophages divided by IC50 of parasites
Protocol: T. brucei screening. Procyclic promastigotes from exponentially growing cells maintained SDM-79 medium were used in all assays. Compounds were initially screened at 10 μM for activity. Compounds were diluted in culture media to a concentration of 20 μM and added to a 96 well plate, after addition of promastigotes (final concentration 4×10^5 cells/ml) compound concentration was 10 μM. Cells were incubated for 48 hrs at 27° C. before the addition of alamar blue and fluorescence measurement as described above. […] Compounds were serially diluted in thirds in culture media resulting in final concentrations ranging from 0.004-10 μM. Promastigotes were added at a final concentration of 4×10^5 cells/ml. Cells were incubated at 27° C. for 48 hours before addition of alamar blue. In addition promastigotes, at a concentration of 8×10^5 were exposed to NCL026 for 1.5 hours before removal of the drug via centrifugation at 5000 rpm for 7 minutes and resuspension of cells in culture media. Cells were incubated for 96 hours at 27° C. and observed daily for metabolic activity (alamar blue assay) and morphological changes. A control culture was exposed to DMSO instead of NCL026.

[3] = system: Mouse macrophages (RAW 264.7); test: Cell toxicity assay (WST-1); type: cell-based; details: RAW 264.7, 24 hours, read-out: GI50 macrophage
Protocol: (§1) Cell toxicity assays. Mouse macrophages (RAW 264.7) were grown in RPM11640 media supplemented with L-glutamine and 10% foetal calf serum. Cells were trypsanised when 80% confluent and subcultured every 3-4 days. For cytotoxicity assays cells were diluted to a final cell concentration of 2×10^4 cells/ml and 198 μl added to each well of a 96 well plate. Cells were incubated in a humidified incubator for 2 hours at 37° C. 5% CO2 before the addition of NCL compounds (2 μl/well, previously diluted in DMSO). Campothecin, triton X and DMSO only were used as controls. Cells were exposed to the compounds for 24 hours. The metabolic activity of the cells was determined using the WST-1 assay system (Roche Life Science). The supernatant was removed, 100 μl of PBS with 10% WST-1 was added to each well and incubated for 1 hr before reading absorbance at 450 nm. The selectivity index of the compounds was determined by dividing the IC50 of macrophages by the IC50 against parasites. IC50 was determined via graphpad prism software.

[4] = Exposure in male Swiss outbred mice following IV administration; type: in vivo; details: IV 5 mg/kg; for Apparent t1/2: plasma, value marked b is an approximation; for AUC0-inf / Plasma CL / Plasma Vss: values marked a, b are approximations
Protocol: The systemic exposures of NCL026, NCL195, NCL259 and NCL812 were studied in nonfasted male Swiss outbred mice weighing 26.2-32.1 g. Mice had access to food and water ad libitum throughout the pre- and post-dose sampling period. Each compound was administered IV via a bolus injection into the tail vein (vehicle 20% (v/v) DMSO in PEG400, 1 mL/kg dose volume, n=8 mice per compound). […] A maximum of two samples were obtained from each mouse, with samples being taken either via submandibular bleed (approximately 120 μL; conscious sampling) or terminal cardiac puncture (0.6 mL; while mice were anaesthetised using inhaled Isoflurane). No urine samples were collected as mice were housed in bedded cages during the study. Blood was collected directly into polypropylene Eppendorf tubes containing heparin as anticoagulant, and stabilisation cocktail (containing Complete® (a protease inhibitor cocktail with EDTA) and potassium fluoride) to minimise the potential for ex vivo degradation of the test compounds in blood/plasma samples. Once collected, blood samples were centrifuged immediately, supernatant plasma was removed, and stored at −80° C. until analysis by LC-MS using methods standard in the art. Each compound was administered in a vehicle composed of 20% (v/v) DMSO in PEG400. Formulations were prepared by dissolving the compounds in DMSO prior to addition of PEG400. Formulations were not filtered prior to dosing and were administered to mice within 2.5 h of preparation. […] The dose administered to each mouse was calculated on the basis of the measured concentration in the IV formulation, the dose volume and individual mouse body weight. Plasma concentration versus time data were analysed using non-compartmental methods (WinNonlin Version 6.3.0.395). Standard calculations for each pharmacokinetic parameter were calculated using standard methods in the art.

[5] = system: Trypanosoma cruzi (Tulahuen trypomastigotes expressing β-galactosidase, in L6 cells); test: In vitro T. cruzi assay for determination of IC50; type: cell-based; details: 96 h incubation
Protocol: The T. cruzi assay uses Tulahuen trypomastigotes expressing the β-galactosidase gene. The parasites were maintained in vitro by serial passage in L6 cells. […] Extracellular trypomastigotes were then removed and NCL compounds were added in seven-point serial dilutions performed in triplicate. Benznidazole (Epichem Pty Ltd.) was included as a control. […] After 4-6 h, a colour change following catabolisation of the reagent by viable T. cruzi was observed and absorbance was read at 530 nm using a Dynex microplate reader. […] For each compound, % inhibition values were used to generate a standard curve from which the IC50 was calculated. Each assay was performed at least twice, and the average was used.

[6] = Cell toxicity assay (WST-1); type: cell-based, mouse; details: mouse, RAW 264.7 macrophages, RAW 264.7, 24 hours, read-out: GI50 macrophage
Protocol: as §1

[7] = Exposure of NCL195 in male Swiss outbred mice following IP administration; type: in vivo
Protocol: The formulation was prepared by dissolving solid NCL195 in DMSO (to 20% (v/v) of the final volume) before adding PEG400, yielding a clear yellow solution that was dosed to mice within 30 minutes of preparation. The measured concentration of NCL195 in the final formulation was 21.9 mg/mL, resulting in a mean administered dose of 43 mg/kg. Following administration, blood samples were collected up to 24 h post-dose (n=2 mice per time point). A maximum of two samples were obtained from each mouse, with samples being taken either via submandibular bleed (approximately 120 μL; conscious sampling) or terminal cardiac puncture (0.6 mL; while mice were anaesthetised using inhaled Isoflurane). No urine samples were collected as mice were housed in bedded cages during the study. Blood was collected directly into polypropylene Eppendorf tubes containing heparin as anticoagulant and stabilisation cocktail (containing Complete® (a protease inhibitor cocktail), potassium fluoride and EDTA) to minimise the potential for ex vivo degradation of NCL195 in blood/plasma samples. Once collected, blood samples were centrifuged immediately, supernatant plasma was removed, and stored in −20° C. until analysis by LCMS using standard methods in the art.

[8] = system: Giardia duodenalis (strain WB trophozoites); test: Giardia adherence assay; type: cell-based; details: exposed for 5 hours
Protocol: Giardia strain WB was grown until confluent (grown and maintained in TYI-S-33 medium with 10% foetal bovine serum). For the assay, media of a confluent culture was replaced with fresh TYI-S-33 medium. Cultures were then cold shocked (on ice) for 40 minutes to detach trophozoites. The cell density of the cultures was adjusted to 1×10^6 cells/ml and 1 ml was added to each well of a 24 well plate already containing 1 ml of diluted compounds (see below). […] After incubation the coverslips were removed, air-dried and stained with Diff-Quik (a Romanowski stain variant). Coverslips were mounted onto glass slides using polymount. Images at 10× magnification were taken at 5 random locations per coverslip. […] Stock solutions of compounds were prepared in DMSO at 25.6 mg/ml. Compounds were diluted 1:100 in TYI-S-33 medium. A 1:2 serial dilution was then performed in TYI-S-33 medium in 24 well plates.

[9] = system: Giardia duodenalis trophozoites; test: Resazurin reduction assay (Example 3); type: cell-based; details: 42 hours, then 6 hours with Alamarblue
Protocol: Giardia trophozoites were grown until confluent. The media was replaced with fresh media and they were cold shocked for 40 minutes (as above). Cells were diluted to a concentration of ˜500 000 cells/ml and 100 μl were added to each well of the assay plate (except media only control). The assay was incubated in an anaerobic environment (candle jar) for 42 hours at 37° C. […] After incubation the absorbance of each sample was read at 570 and 630 nm. The percent reduction of resazurin (Alamarblue™) was calculated and data was analysed with GraphPad Prism v6 software. Assay set-up: the assay was performed in 96 well plates in a total volume of 200 μl. 100 μl of NCL812 or NCL062 (concentration of 25.6 mg/ml in DMSO) or metronidazole (concentration 5 mg/ml in DMSO) stock was added to 9.9 ml of TYI-S-33 medium, then serially diluted 1:2 in the same medium. Cells were added as above.

[10] = system: giardia; details: cited from earlier work

IC50 ([2]; 48 hours)	SMILES	IC50 [1]	L. donovani SI [1]	T. brucei SI [2]	GI50 [3]	Apparent t1/2 [4]	AUC0-inf [4]	Plasma CL [4]	Plasma Vss [4]	other results
–	Cl.N=C(NN=Cc1ccc(SC(F)(F)F)cc1)NN=Cc1ccc(SC(F)(F)F)cc1 [NCL166]	3.23 ± 1 µM	2.78	–	9.46 ± 0.05 µM	–	–	–	–	–
1.4 µM	CN(C)c1ccc(C=NNC(=N)NN=Cc2ccc(N(C)C)cc2O)c(O)c1 [NCL171]	–	–	relatively selective	12.5 ± 3.61 µM	–	–	–	–	IC50 ([2]; 48 hours, listed as NCL 171): 1.37 ± 0.03 µM; T. brucei SI ([2]; listed as NCL 171): 9.14
1.46 ± 0.76 µM	Cc1ccc(/C=N/Nc2cc(N/N=C/c3ccc(C)cc3)nc(N)n2)cc1 [NCL195, 4,6-bis(2-((E)-4-methylbenzylidene)hydrazinyl)pyrimidin-2-amine]	–	–	3.79	–	2.4 h	12.5 µM·h	16.3 mL/min/kg	2.6 L/kg	inhibition at 10 µM ([1]; Leishmania donovani, 10 μM, 96 hrs, read-out: reduction of metabolic activity / inhibition of L. donovani): 100%; IC50 ([2]; Trypanosoma brucei, 48 h): 1.5 µM; GI50 at 24 h [6]: 5.78 ± 0.33 µM; absorption after dosing ([7]; IP, 43 mg/kg): rapidly absorbed; adverse reactions or compound-related side effects ([7]; IP, 43 mg/kg): No adverse reactions or compound-related side effects; duration of exposure at a plasma concentration >8 μg/mL ([7]; extrapolated to IP 100 mg/kg, assuming dose proportionality): at least 7.5 hours
–	Cc1ncc([N+](=O)[O-])n1CCO [metronidazole, reference compound]	–	–	–	–	–	–	–	–	number of adherent trophozoites [8]: significant decreases; metabolic activity of the trophozoites (percentage of reduction of resazurin) [9]: reduction in the metabolic activity; median efficacy ([10]; giardia treatment): approximately 89%; giardia curative rate (clearance of the protozoan) ([10]; human adult and paediatric patients, 5-10 days, reported as low as): ≥ 60%
–	CC(=O)Oc1ccccc1C(=O)Nc1ncc([N+](=O)[O-])s1 [nitazoxanide]	–	–	–	–	–	–	–	–	overall response rate (clearance of the protozoan) ([10]; giardia): 75%

SMILES	IC50 ([2]; 48 hours)	IC50 [1]	L. donovani SI [1]	T. brucei SI [2]	GI50 [3]	Apparent t1/2 [4]	AUC0-inf [4]	Plasma CL [4]	Plasma Vss [4]	other results
N#Cc1cccc(C=NNC(=N)NN=Cc2cccc(C#N)c2)c1 [NCL026]	1.7 µM	2.5 ± 0.13 µM	3.84	5.71	9.6 ± 0.99 µM	1.5 h	2.5 µM·h	100.6 mL/min/kg	6.9 L/kg	reduction of metabolic activity / inhibitory effect on T. brucei ([2]; 10 μM, 48 hrs): greatest inhibitory effect; IC50 ([2]; 48 hours, listed as NCL 026): 1.68 ± 0.63 µM; IC50 [5]: 1.4 µM
